# Data from US8557839B2, “Fused ring azadecalin glucocorticoid receptor modulators” (Corcept Therapeutics, Inc., priority 2004, dated 2013).
# What was measured:
# glucocorticoid receptors [1] = target: T1, glucocorticoid receptors (Homo sapiens, UniProt P04150); assay: Glucocorticoid receptor binding displacement assay with 3H-dexamethasone; design: This GR was a full-length steroid hormone receptor; host or cells: recombinant baculovirus-infected insect cells
# T1 sequence (P04150 1-777): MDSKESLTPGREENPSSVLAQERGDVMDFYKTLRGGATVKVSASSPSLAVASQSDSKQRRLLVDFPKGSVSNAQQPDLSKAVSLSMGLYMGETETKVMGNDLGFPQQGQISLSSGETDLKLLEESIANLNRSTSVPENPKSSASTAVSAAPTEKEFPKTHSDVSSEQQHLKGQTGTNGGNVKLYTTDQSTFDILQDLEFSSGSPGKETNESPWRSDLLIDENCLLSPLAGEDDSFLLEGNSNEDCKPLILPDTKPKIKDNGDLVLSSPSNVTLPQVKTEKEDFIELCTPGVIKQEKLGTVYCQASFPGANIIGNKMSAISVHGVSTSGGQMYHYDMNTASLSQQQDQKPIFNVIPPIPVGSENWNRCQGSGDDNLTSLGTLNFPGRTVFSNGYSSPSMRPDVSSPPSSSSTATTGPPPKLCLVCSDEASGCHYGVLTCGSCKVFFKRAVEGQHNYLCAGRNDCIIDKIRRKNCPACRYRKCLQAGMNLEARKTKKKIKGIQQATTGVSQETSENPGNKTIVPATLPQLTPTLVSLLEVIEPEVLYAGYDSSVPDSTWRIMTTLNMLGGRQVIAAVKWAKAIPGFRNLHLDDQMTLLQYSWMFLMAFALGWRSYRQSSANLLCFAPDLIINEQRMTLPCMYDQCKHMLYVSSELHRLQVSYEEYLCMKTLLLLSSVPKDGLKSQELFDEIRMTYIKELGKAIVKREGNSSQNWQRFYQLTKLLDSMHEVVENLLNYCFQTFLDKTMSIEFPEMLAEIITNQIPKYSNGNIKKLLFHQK
# Experimental: The source of the receptor was recombinant baculovirus-infected insect cells. This GR was a full-length steroid hormone receptor likely to be associated with heat-shock and other endogenous proteins.
# For the Primary Screen, test compounds were tested at 1 μM in duplicate. These compounds were diluted from 10 mM stock in 100% DMSO. After dilution to 100 μM, 5 μl were added to 245 μl assay buffer to obtained 2 μM compound and 2% DMSO.
# For the IC50 determinations, test compounds were tested at 6 concentrations in duplicate (concentration range depends on % inhibition binding that was obtained in the Primary Screen). Test compounds were diluted from 10 mM stock in 100% DMSO. The tested solutions were prepared at 2× final assay concentration in 2% DMSO/assay buffer.
# All reagents and the assay plate were kept on ice during the addition of reagents. […] After the additions, the incubation mixture was mixed and incubated for 2.5 hrs at 4° C.
# After 2.5 hrs incubation, unbound counts were removed with dextran coated charcoal (DCC) as follows: 25 μl of DCC solution (10% DCC in assay buffer) was added to all wells and mixed (total volume 225 μl). The plate was centrifuged at 4000 rpm for 10 minutes at 4° C. 75 μl of the supernatants (i.e.⅓ of total volume) was carefully pipetted into an optiplate. 200 μl of scintillation cocktail were added (Microscint-40, Packard Bioscience. B.V.). The plate was vigorously shaken for approx. 10 minutes and counted on Topcount.
# The IC50 values were converted to Ki (the inhibition constant) using the Cheng-Prusoff equation.
# Reagents: Assay buffer: 10 mM potassium phosphate buffer pH 7.6 containing 5 mM DTT, 10 mM sodium molybdate, 100 μM EDTA and 0.1% BSA.
# glucocorticoid receptors [2] = target: T1, glucocorticoid receptors; assay: GR functional assay using SW1353/MMTV-5 cells (dexamethasone-induced luciferase); type: cell-based; design: contains endogenous glucocorticoid receptors; endogenous in cells; host or cells: SW1353/MMTV-5 (human chondrosarcoma, stably carrying the pMAMneo-Luc reporter)
# Experimental: SW1353/MMTV-5 is an adherent human chondrosarcoma cell line that contains endogenous glucocorticoid receptors. It was transfected with a plasmid (pMAMneo-Luc) encoding firefly luciferase located behind a glucocorticoid-responsive element (GRE) derived from a viral promoter (long terminal repeat of mouse mammary tumor virus). A stable cell line SW1353/MMTV-5 was selected with geneticin, which was required to maintain this plasmid.
# SW1353/MMTV-5 cells were distributed in 96-well plates and incubated in medium (without geneticin) for 24 hrs (in the absence of CO2).
# [3] = Ki from IC50 by Cheng-Prusoff, 2.5 nM 3H-dexamethasone, read-out: GR Binding
# [4] = SW1353/MMTV-5 cells, antagonism of 50 nM dexamethasone, luciferase, read-out: GR Functional
SMILES,Ki (glucocorticoid receptors [1]; [3]) [nM],Ki (glucocorticoid receptors [2]; read-out: GR Functional) [nM],Ki (glucocorticoid receptors [2]; [4]) [nM],Ki (glucocorticoid receptors [1]) [nM],Ki (glucocorticoid receptors [2]) [nM]
CC(C)(C)c1ccc(S(=O)(=O)N2CCC3=Cc4c(cnn4-c4ccc(F)cc4)C[C@]3(C(=O)c3ccccc3)C2)cc1,< 10,< 10,,,
CC(O)[C@]12Cc3cnn(-c4ccc(F)cc4)c3C=C1CCN(S(=O)(=O)c1ccc(C(C)(C)C)cc1)C2 (some centres unmarked),< 10,10 to 100,,,
CC(C)(C)c1ccc(S(=O)(=O)N2CCC3=Cc4c(cnn4-c4ccc(C#N)cc4)CC3(Cc3ccccc3)C2)cc1 (centres unmarked) [drawing 255],< 10,,10 to 100,,
CC(C)(C)c1ccc(S(=O)(=O)N2CCC3=Cc4c(cnn4-c4ccc(F)cc4)CC3(Cc3ccccc3)C2)cc1 (centres unmarked) [drawing 233],< 10,10 to 100,,,
COCCOC[C@]12Cc3cnn(-c4ccc(F)cc4)c3C=C1CCN(S(=O)(=O)N(C)C)C2,> 100,> 100,,,
CS(=O)(=O)N1CCC2=Cc3c(cnn3-c3ccc(F)cc3)CC2(Cc2ccc(F)cc2)C1 (centres unmarked),10 to 100,> 100,,,
Fc1ccc(-n2ncc3c2C=C2CCN(Cc4c[nH]cn4)CC2(Cc2ccccc2)C3)cc1 (centres unmarked),> 100,> 100,,,
CC(C)n1ncc2c1C=C1CCN(S(=O)(=O)c3ccc(C(C)(C)C)cc3)C[C@@]1(CN(C)C)C2,10 to 100,> 100,,,
Cc1ccc(S(=O)(=O)N2CCC3=Cc4c(cnn4-c4ccc(F)cc4)C[C@]3(CN3CCCC3)C2)cc1,< 10,< 10,,,
CCOC[C@]12Cc3cnn(-c4ccc(F)cc4)c3C=C1CCN(S(=O)(=O)c1ccc(C(C)(C)C)cc1)C2,< 10,< 10,,,
COCCOC[C@]12Cc3cnn(-c4ccc(F)cc4)c3C=C1CCN(S(=O)(=O)c1ccc(C(C)(C)C)cc1)C2,< 10,< 10,,,
COC[C@]12Cc3cnn(-c4ccc(F)cc4)c3C=C1CCN(S(=O)(=O)c1ccc(F)cc1)C2,< 10,10 to 100,,,
O=S(=O)(c1ccccc1)N1CCC2=Cc3c(cnn3-c3ccc(F)cc3)C[C@]2(CN2CCCCC2)C1,,,,< 10,10 to 100
COc1ccc(CC23Cc4cnn(-c5ccc(F)cc5)c4C=C2CCN(Cc2ccccc2)C3)cc1 (centres unmarked) [drawing 260],< 10,,> 100,,
Fc1ccc(-n2ncc3c2C=C2CCN(Cc4ccccc4)CC2(Cc2ccccc2)C3)cc1 (centres unmarked) [drawing 242],10 to 100,> 100,,,
CC(C)(C)c1ccc(S(=O)(=O)N2CCC3=Cc4c(cnn4-c4ccc(F)cc4)C[C@]3(CNCCO)C2)cc1,< 10,10 to 100,,,
COC(=O)C[C@]12Cc3cnn(-c4ccc(F)cc4)c3C=C1CCN(S(=O)(=O)c1ccc(C(C)(C)C)cc1)C2,< 10,10 to 100,,,
CC(C)n1ncc2c1C=C1CCN(S(=O)(=O)c3ccc(C(C)(C)C)cc3)C[C@@]1(CN1CCCCC1)C2,< 10,10 to 100,,,
CC(C)(C)c1ccc(CN2CCC3=Cc4c(cnn4-c4ccc(F)cc4)CC3(Cc3ccc(F)cc3)C2)cn1 (centres unmarked),< 10,> 100,,,
COC[C@]12Cc3cnn(-c4ccc(F)cc4)c3C[C@@H]1CCN(S(=O)(=O)c1ccccc1)C2,10 to 100,> 100,,,

SMILES,Ki (glucocorticoid receptors [1]; [3]) [nM],Ki (glucocorticoid receptors [2]; read-out: GR Functional) [nM],Ki (glucocorticoid receptors [2]; [4]) [nM],Ki (glucocorticoid receptors [1]) [nM],Ki (glucocorticoid receptors [2]) [nM]
CC(C)(C)c1ccc(S(=O)(=O)N2CCC3=Cc4[nH]ncc4CC3(Cc3ccccc3)C2)cc1 (centres unmarked) [drawing 245],< 10,10 to 100,,,
COc1ccc(-n2ncc3c2C=C2CCN(S(=O)(=O)c4ccc(C(C)(C)C)cc4)C[C@@]2(Cc2ccccc2)C3)cc1,< 10,10 to 100,,,
COCCOC[C@]12Cc3cnn(-c4ccc(F)cc4)c3C[C@@H]1CCN(S(=O)(=O)c1ccc(C(C)(C)C)cc1)C2,< 10,< 10,,,
CC(C)(C)c1ccc(S(=O)(=O)N2CCC3=Cc4c(cnn4Cc4ccccc4)CC3(Cc3ccccc3)C2)cc1 (centres unmarked) [drawing 253],< 10,,> 100,,
CC(C)(C)c1ccc(S(=O)(=O)N2CCC3=Cc4c(cnn4-c4ccc(F)cc4)C[C@]3(C(=O)N3CCCC3)C2)cc1,< 10,10 to 100,,,
COCC[C@]12Cc3cnn(-c4ccc(F)cc4)c3C=C1CCN(S(=O)(=O)c1ccc(C(C)(C)C)cc1)C2,< 10,< 10,,,
CC(C)(C)c1ccc(S(=O)(=O)N2CCC3=Cc4c(cnn4-c4ccc(F)cc4)CC3(Cc3ccccc3)C2)cc1 (centres unmarked) [drawing 249],< 10,,10 to 100,,
COC[C@]12Cc3cnn(-c4ccc(F)cc4)c3C=C1CCN(S(=O)(=O)c1ccc(C)cc1)C2,< 10,< 10,,,
Fc1ccc(-n2ncc3c2C=C2CCN(Cc4ccccc4)CC2(Cc2ccccc2)C3)cc1 (centres unmarked) [drawing 258],10 to 100,,> 100,,
C[C@]12Cc3cnn(-c4ccc(F)cc4)c3C=C1CCN(S(=O)(=O)N1CCCCC1)C2,10 to 100,> 100,,,
C[C@]12Cc3cnn(-c4ccc(F)cc4)c3C=C1CCN(S(=O)(=O)c1ccc(N)cc1)C2,10 to 100,> 100,,,
O=S(=O)(N1CCOCC1)N1CCC2=Cc3c(cnn3-c3ccc(F)cc3)CC2(Cc2ccc(F)cc2)C1 (centres unmarked),,,,10 to 100,> 100
COCCOC[C@]12Cc3cnn(C4CCCC4)c3C=C1CCN(S(=O)(=O)c1ccc(C)cc1)C2,< 10,10 to 100,,,
CC(C)(C)c1ccc(S(=O)(=O)N2CCC3=Cc4c(cnn4-c4ccc(F)cc4)C[C@]3(COCCN3CCOCC3)C2)cc1,10 to 100,> 100,,,
COC[C@]12Cc3cnn(C(C)C)c3C=C1CCN(S(=O)(=O)c1ccc(C(C)(C)C)cc1)C2,10 to 100,> 100,,,
CC(C)(C)c1ccc(S(=O)(=O)N2CCC3=Cc4c(cnn4-c4ccc(F)cc4)C[C@]3(CO)C2)cc1,< 10,10 to 100,,,
COC[C@]12Cc3cnn(-c4ccc(F)cc4)c3C=C1CCN(S(=O)(=O)c1ccccc1)C2,< 10,10 to 100,,,
O=C(Nc1ccccc1)N1CCC2=Cc3c(cnn3-c3ccc(F)cc3)CC2(Cc2ccc(F)cc2)C1 (centres unmarked),< 10,10 to 100,,,
Cc1ccccc1S(=O)(=O)N1CCC2=Cc3c(cnn3-c3ccc(F)cc3)C[C@]2(CN2CCOCC2)C1,< 10,10 to 100,,,
CCCCn1ncc2c1C=C1CCN(S(=O)(=O)c3ccc(C)cc3)C[C@@]1(COC)C2,10 to 100,> 100,,,
